Drawing on ChEMBL document CHEMBL3045149, “Antifeedant activity of dihydro--agarofuran sesquiterpenes from Celastraceae against Spodoptera littoralis” (1992), this text covers FR50 and Activity for 18 compounds.

What all share (type): functional
Experiment [1] has as its system Spodoptera littoralis. Kind of experiment: Antifeedant activity against Spodoptera littoralis fifth-instar larvae reared on compound exposed lettuce disks assessed as feeding ratio when 50% of control leaf disk area consumed at 10 ug/cm2 measured for 4 to 5 hr by leaf disk choice method.
For experiment [2], the system named is Spodoptera littoralis. The experiment can be described thus: Antifeedant activity against Spodoptera littoralis fifth-instar larvae reared on compound exposed lettuce disks assessed as feeding ratio when 50% of control leaf disk area consumed at 0.1 ug/cm2 measured for 4 to 5 hr by leaf disk choice method.
For experiment [3], the system named is Spodoptera littoralis. Kind of experiment: Antifeedant activity against Spodoptera littoralis fifth-instar larvae reared on compound exposed lettuce disks assessed as leaf disk protection at 10 to 1 ug/cm2 measured for 4 to 5 hr by leaf disk choice method.
The subject of experiment [4] is Spodoptera littoralis. Kind of experiment: Antifeedant activity against Spodoptera littoralis fifth-instar larvae reared on compound exposed lettuce disks assessed as feeding ratio when 50% of control leaf disk area consumed at 1 ug/cm2 measured for 4 to 5 hr by leaf disk choice method.

Take `CC(=O)OC[C@]12[C@H](OC(=O)c3ccccc3)[C@H](OC(C)=O)[C@@H]3[C@@H](OC(C)=O)[C@]1(OC3(C)C)[C@@](C)(O)C[C@H](OC(C)=O)[C@@H]2OC(=O)c1ccccc1`: in the experiment on Spodoptera littoralis [1], the FR50 is reported as 0.35.

`CC[C@H](C)C(=O)O[C@H]1[C@H](O)C[C@@H]2[C@@](C)([C@@H]3C[C@H]4CCO[C@H]4O3)[C@H](C)C[C@H](OC(C)=O)[C@@]2(COC(C)=O)[C@@]12CO2` [14,15-DIHYDROAJUGAPITIN]: the FR50 in the experiment with Spodoptera littoralis [2] is reported as 0.32.

Consider `CC(=O)O[C@H]1[C@@H]2[C@@H](OC(=O)c3cccnc3)[C@@]3(OC2(C)C)[C@@](C)([C@@H](OC(=O)c2ccccc2)CC[C@]3(C)O)[C@@H]1OC(C)=O`, for which, in the experiment on Spodoptera littoralis [3], the Activity was determined as 100%. For the same compound, the FR50 in the experiment on Spodoptera littoralis [2] stood at 0.45; in the experiment with Spodoptera littoralis [4], 0.15; with Spodoptera littoralis [1], 0.04.

In the case of `CC(=O)O[C@@H]1[C@@H]2[C@@H](OC(C)=O)[C@]3(OC2(C)C)[C@H](C)C[C@H](OC(C)=O)[C@H](OC(C)=O)[C@@]3(CO)[C@@H]1OC(=O)c1ccccc1`, the FR50 with Spodoptera littoralis [4] is reported as 0.65; in the experiment on Spodoptera littoralis [1], 0.16.

For the compound `CCC(C)C(=O)O[C@H]1[C@H](O)C[C@@H]2[C@@](C)([C@@H]3C[C@H]4C=CO[C@H]4O3)[C@H](C)C[C@H](OC(C)=O)[C@@]2(COC(C)=O)[C@@]12CO2` (stereo partly drawn) [AJUGAPITIN], the FR50 in the experiment with Spodoptera littoralis [2] turned out to be 0.41.

As to `CC(=O)O[C@@H]1[C@@H]2[C@@H](OC(C)=O)[C@]3(OC2(C)C)[C@H](C)C[C@H](OC(C)=O)[C@H](OC(C)=O)[C@@]3(CO)[C@H]1OC(=O)c1ccccc1`, the FR50 with Spodoptera littoralis [4] was found to be 0.53; in the experiment on Spodoptera littoralis [1] it was 0.07.

As to `CC(=O)OC[C@@]12[C@@H](OC(=O)c3ccccc3)CC[C@](C)(O)[C@]13OC(C)(C)[C@H]([C@@H](OC(C)=O)[C@H]2OC(=O)c1ccccc1)[C@H]3OC(C)=O`, the figures for the FR50 in the experiment on Spodoptera littoralis [4] and in the experiment on Spodoptera littoralis [1] were 0.58 and 0.24, respectively.

For the compound `CC(=O)O[C@H]1C[C@@H](C)[C@]23OC(C)(C)[C@H](C[C@H](OC(=O)c4ccccc4)[C@]2(CO)[C@H]1OC(C)=O)[C@H]3OC(C)=O`, in the experiment on Spodoptera littoralis [1], the FR50 was determined as 0.36.

Consider `CC(=O)OC[C@@]12[C@@H](OC(=O)/C=C/c3ccccc3)CC[C@](C)(O)[C@]13OC(C)(C)[C@H]([C@@H](OC(C)=O)[C@H]2OC(=O)c1ccccc1)[C@H]3OC(C)=O`, for which the FR50 in the experiment with Spodoptera littoralis [1] was 0.27.

On to `CC(=O)O[C@H]1[C@H](OC(=O)c2ccccc2)[C@@]2(C)[C@@H](OC(=O)c3ccccc3)C[C@@H]3[C@@H](OC(C)=O)[C@]2(OC3(C)C)[C@@](C)(O)[C@H]1O` [2BETA,3BETA,4BETA,TRIHYDROXYCELARBICO], for which the values for the FR50 in the experiment with Spodoptera littoralis [4] and with Spodoptera littoralis [1] were 0.44 and 0.24, respectively.

Turning to `CCC(C)C(=O)O[C@H]1[C@H](OC(C)=O)C[C@@H]2[C@@](C)([C@@H]3C[C@H]4CCO[C@H]4O3)[C@H](C)C[C@H](OC(C)=O)[C@@]2(COC(C)=O)[C@@]12CO2` (stereo partly drawn) [2-acetyl-14,15-dihydroajugapitin], in the experiment with Spodoptera littoralis [2], the FR50 amounted to 0.62.

In the case of `CC(=O)OC[C@]12[C@@H](OC(=O)c3ccccc3)C[C@@H]3[C@@H](OC(C)=O)[C@]1(OC3(C)C)[C@H](C)C[C@H](OC(C)=O)[C@@H]2OC(C)=O`, the results for the FR50 with Spodoptera littoralis [4] and with Spodoptera littoralis [1] were 0.54 and 0.19, respectively.

For `CC(=O)O[C@@H]1[C@@H](O)[C@@H]2[C@@H](OC(=O)c3cccnc3)[C@@]3(OC2(C)C)[C@@]1(C)[C@@H](OC(=O)c1ccccc1)CC[C@]3(C)O`, in the experiment on Spodoptera littoralis [1], the FR50 is 0.74.

In the case of `CC(=O)O[C@H]1[C@@H]2[C@@H](OC(C)=O)[C@@]3(OC2(C)C)[C@@](C)([C@@H](OC(=O)c2ccccc2)CC[C@]3(C)O)[C@@H]1OC(C)=O`, the results for the FR50 with Spodoptera littoralis [4] and with Spodoptera littoralis [1] were 0.4 and 0.12, respectively.

With `CC(=O)O[C@H]1[C@@H]2C[C@@]3(OC2(C)C)[C@](C)([C@H]1OC(=O)c1ccccc1)[C@@H](OC(=O)c1ccccc1)[C@H](OC(C)=O)[C@H](OC(C)=O)[C@]3(C)O` [2BETA,3BETA,4BETA-TRIHYDROXYCELAPANOL], in the experiment on Spodoptera littoralis [1], the FR50 was 0.38.

Take `CC(=O)OC[C@]12[C@@H](OC(=O)c3ccccc3)[C@H](OC(C)=O)[C@@H]3[C@@H](OC(C)=O)[C@]1(OC3(C)C)[C@H](C)C[C@H](OC(C)=O)[C@@H]2OC(C)=O`: the FR50 was found to be 0.71 in the experiment on Spodoptera littoralis [4] and 0.13 with Spodoptera littoralis [1].

As to `CC(=O)O[C@H]1C[C@@H]2[C@@H](OC(=O)c3cccnc3)[C@@]3(OC2(C)C)[C@@]1(C)[C@@H](OC(=O)c1ccccc1)CC[C@]3(C)O`, the FR50 in the experiment on Spodoptera littoralis [1] worked out at 0.68.

TRIPHENYLSTANNYL ACETATE: the FR50 in the experiment on Spodoptera littoralis [1] stood at 0.37.
